Several values for one entry are separate records, joined by “and”; a condition that tells them apart may be missing. Identical values can stand only once.
Columns and labels:
Format in all cases: cell-based, human
[1] = system: IL-1β; assay: IL-1β in supernatants of UVB-irradiated HaCaT cells; settings: UVB 100 mJ irradiated, azelaic acid 20 mM, pigment 3%
Description: (§1) HaCaT cells originate from a spontaneously immortalized permanent human keratinocyte cell line established by long-term cultivation of adult human keratinocytes under reduced calcium concentration and elevated temperature (Boukamp et al. J Cell Biol 106:761-771, 1988). HaCaT cells were propagated in culture medium. This consists of 88 ml DMEM/Ham's F12 w/o glutamine, 10 ml foetal calf serum, 1 ml penicillin/streptomycin solution with 10,000 units/ml and 1 ml of glutamine. […] HaCaT cells were sown in 6-well or 12-well plates at a cell number of 3×10^5 and 1.5×10^5 cells/well, respectively. The cells were cultivated to about 80% confluence in culture medium. 2 h prior to the intended UV irradiation, the cells were incubated with the above-mentioned substances. Immediately before the irradiation, the cells were washed 2× with PBS and irradiated therein. Irradiation was with UVB (spectrum: 280-360 nM, max. 320 nM) in a Waldmann-UVB source UV7002 at 100 mJ. After the UV irradiation, the cells were irradiated in culture medium in the presence and absence of the abovementioned substances. The cultures were stopped 24 h or 48 h after the UVB irradiation, and the supernatant was removed and centrifuged to remove debris and titanium dioxide-coated potassium aluminium silicate. All cultures were set up in triplicate. The supernatants were frozen at -80° C. until further use. The protein concentration was determined using a commercial kit from Meso Scale Discovery, Gaithersburg, Md., USA. The test was carried out in accordance with the instructions of the manufacturer (www.mesoscale.com). […] The samples were then washed once more, 150 μl of read buffer were pipetted into the mixture and the electrochemiluminescence was measured in an MSD Sector plate reader. […] The following cell cultures were prepared: • unirradiated HaCaTs • irradiated HaCaTs (100 mJ) • irradiated HaCaTs (100 mJ) in the presence of azelaic acid, • irradiated HaCaTs (100 mJ) in the presence of azelaic acid and titanium dioxide-coated potassium aluminium silicate The following reagents were used to treat the cells: • azelaic acid, Fluka, batch S3317131508B29, 20 mM • titanium dioxide-coated potassium aluminium silicate, Merck Darmstadt, batch W08012807X, 3% The following cytokines/chemokines were analyzed: • IL-1β • IL-6 • TNF-α • VEGF • MCP-1=CCL2 HaCaT cells were cultivated in triplicates, irradiated with 100 mJ UVB and then cultivated in the presence or absence of azelaic acid and, if appropriate, titanium dioxide-coated potassium aluminium silicate or the combination thereof for 24 or 48 h. […] The cytokines IL-1β (A), IL-6 (B), TNFα (C), VEGF (D) and MCP-1/CCL2 (E) were measured in the supernatant in triplicate after 24 (series I) and 48 h (series II) using Mesoscale. […]

[2] = system: IL-6; assay: IL-6 in supernatants of UVB-irradiated HaCaT cells; settings: UVB 100 mJ irradiated, azelaic acid 20 mM, pigment 3%
Description: (§2) HaCaT cells originate from a spontaneously immortalized permanent human keratinocyte cell line established by long-term cultivation of adult human keratinocytes under reduced calcium concentration and elevated temperature (Boukamp et al. J Cell Biol 106:761-771, 1988). HaCaT cells were propagated in culture medium. This consists of 88 ml DMEM/Ham's F12 w/o glutamine, 10 ml foetal calf serum, 1 ml penicillin/streptomycin solution with 10,000 units/ml and 1 ml of glutamine. […] HaCaT cells were sown in 6-well or 12-well plates at a cell number of 3×10^5 and 1.5×10^5 cells/well, respectively. The cells were cultivated to about 80% confluence in culture medium. 2 h prior to the intended UV irradiation, the cells were incubated with the above-mentioned substances. Immediately before the irradiation, the cells were washed 2× with PBS and irradiated therein. Irradiation was with UVB (spectrum: 280-360 nM, max. 320 nM) in a Waldmann-UVB source UV7002 at 100 mJ. […] The protein concentration was determined using a commercial kit from Meso Scale Discovery, Gaithersburg, Md., USA. […] The samples were then washed once more, 150 μl of read buffer were pipetted into the mixture and the electrochemiluminescence was measured in an MSD Sector plate reader. […] The following cell cultures were prepared: • unirradiated HaCaTs • irradiated HaCaTs (100 mJ) • irradiated HaCaTs (100 mJ) in the presence of azelaic acid, • irradiated HaCaTs (100 mJ) in the presence of azelaic acid and titanium dioxide-coated potassium aluminium silicate The following reagents were used to treat the cells: • azelaic acid, Fluka, batch S3317131508B29, 20 mM • titanium dioxide-coated potassium aluminium silicate, Merck Darmstadt, batch W08012807X, 3% The following cytokines/chemokines were analyzed: • IL-1β • IL-6 • TNF-α • VEGF • MCP-1=CCL2 HaCaT cells were cultivated in triplicates, irradiated with 100 mJ UVB and then cultivated in the presence or absence of azelaic acid and, if appropriate, titanium dioxide-coated potassium aluminium silicate or the combination thereof for 24 or 48 h. […]

[3] = system: TNF-α; assay: TNF-α in supernatants of UVB-irradiated HaCaT cells; settings: UVB 100 mJ irradiated, azelaic acid 20 mM, pigment 3%
Description: as §2

[4] = system: VEGF; assay: VEGF in supernatants of UVB-irradiated HaCaT cells
Description: HaCaT cells originate from a spontaneously immortalized permanent human keratinocyte cell line established by long-term cultivation of adult human keratinocytes under reduced calcium concentration and elevated temperature (Boukamp et al. J Cell Biol 106:761-771, 1988). HaCaT cells were propagated in culture medium. This consists of 88 ml DMEM/Ham's F12 w/o glutamine, 10 ml foetal calf serum, 1 ml penicillin/streptomycin solution with 10,000 units/ml and 1 ml of glutamine. […] HaCaT cells were sown in 6-well or 12-well plates at a cell number of 3×10^5 and 1.5×10^5 cells/well, respectively. The cells were cultivated to about 80% confluence in culture medium. 2 h prior to the intended UV irradiation, the cells were incubated with the above-mentioned substances. Immediately before the irradiation, the cells were washed 2× with PBS and irradiated therein. Irradiation was with UVB (spectrum: 280-360 nM, max. 320 nM) in a Waldmann-UVB source UV7002 at 100 mJ. After the UV irradiation, the cells were irradiated in culture medium in the presence and absence of the abovementioned substances. The cultures were stopped 24 h or 48 h after the UVB irradiation, and the supernatant was removed and centrifuged to remove debris and titanium dioxide-coated potassium aluminium silicate. All cultures were set up in triplicate. The supernatants were frozen at -80° C. until further use. The protein concentration was determined using a commercial kit from Meso Scale Discovery, Gaithersburg, Md., USA. The test was carried out in accordance with the instructions of the manufacturer (www.mesoscale.com). After addition of the blocking solution to the plates precoated with scavenger antibodies, the samples were incubated for 1 h and then washed. […] After this time, the detection antibody was added for 1 h. The samples were then washed once more, 150 μl of read buffer were pipetted into the mixture and the electrochemiluminescence was measured in an MSD Sector plate reader. […] The following cell cultures were prepared: • unirradiated HaCaTs • irradiated HaCaTs (100 mJ) • irradiated HaCaTs (100 mJ) in the presence of azelaic acid, • irradiated HaCaTs (100 mJ) in the presence of azelaic acid and titanium dioxide-coated potassium aluminium silicate The following reagents were used to treat the cells: • azelaic acid, Fluka, batch S3317131508B29, 20 mM • titanium dioxide-coated potassium aluminium silicate, Merck Darmstadt, batch W08012807X, 3% The following cytokines/chemokines were analyzed: • IL-1β • IL-6 • TNF-α • VEGF • MCP-1=CCL2 HaCaT cells were cultivated in triplicates, irradiated with 100 mJ UVB and then cultivated in the presence or absence of azelaic acid and, if appropriate, titanium dioxide-coated potassium aluminium silicate or the combination thereof for 24 or 48 h. The supernatants were then used to measure proinflammatory cytokines. The cytokines IL-1β (A), IL-6 (B), TNFα (C), VEGF (D) and MCP-1/CCL2 (E) were measured in the supernatant in triplicate after 24 (series I) and 48 h (series II) using Mesoscale. What is shown are the mean values and also the respective individual values of the protein determinations.

[5] = system: MCP-1; assay: MCP-1/CCL2 in supernatants of UVB-irradiated HaCaT cells; settings: UVB 100 mJ irradiated, azelaic acid 20 mM, pigment 3%
Description: as §1

[6] = system: HaCaT cells; assay: Overall anti-inflammatory effect in UVB-irradiated skin cell cultures (HaCaT); settings: addition of azelaic acid
Description: HaCaT cells originate from a spontaneously immortalized permanent human keratinocyte cell line established by long-term cultivation of adult human keratinocytes under reduced calcium concentration and elevated temperature (Boukamp et al. J Cell Biol 106:761-771, 1988). HaCaT cells were propagated in culture medium. This consists of 88 ml DMEM/Ham's F12 w/o glutamine, 10 ml foetal calf serum, 1 ml penicillin/streptomycin solution with 10,000 units/ml and 1 ml of glutamine. […] HaCaT cells were sown in 6-well or 12-well plates at a cell number of 3×10^5 and 1.5×10^5 cells/well, respectively. The cells were cultivated to about 80% confluence in culture medium. 2 h prior to the intended UV irradiation, the cells were incubated with the above-mentioned substances. Immediately before the irradiation, the cells were washed 2× with PBS and irradiated therein. […] The protein concentration was determined using a commercial kit from Meso Scale Discovery, Gaithersburg, Md., USA. […] The samples were then washed once more, 150 μl of read buffer were pipetted into the mixture and the electrochemiluminescence was measured in an MSD Sector plate reader. […] The cytokines IL-1β (A), IL-6 (B), TNFα (C), VEGF (D) and MCP-1/CCL2 (E) were measured in the supernatant in triplicate after 24 (series I) and 48 h (series II) using Mesoscale. […]

In the case of `O=C(O)CCCCCCCC(=O)O` [Azelaic acid, azelaic acid], the “IL-1β in HACaT cell supernatants after 24 h, mean” value ([1]; 24 h, mean n = 3) is reported as 5.8 pg/L, the “IL-1β in HACaT cell supernatants after 24 h, individual values #1-#3” value ([1]; 24 h, single cultures) is reported as 3.1 pg/l (2×) and 11.3 pg/l and the “IL-1β in HACaT cell supernatants after 48 h, mean” value ([1]; 48 h, mean n = 3) is reported as 10.4 pg/L. For the same compound, the IL-1β in HACaT cell supernatants after 48 h, individual values #1-#3 ([1]; 48 h, single cultures) was 7.2 pg/mL and 14.3 pg/mL and 9.7 pg/mL, the “IL-6 in HACaT cell supernatants after 24 h, mean” value ([2]; 24 h, mean n = 3) was 44.3 pg/L and the “IL-6 in HACaT cell supernatants after 24 h, individual values #1-#3” value ([2]; 24 h, single cultures) was 24.7 pg/L and 70.9 pg/L and 37.4 pg/L. The “IL-6 in HACaT cell supernatants after 48 h, mean” value ([2]; 48 h, mean n = 3) was 120.7 pg/L, the “TNF-α in HACaT cell supernatants after 24 h, mean” value ([3]; 24 h, mean n = 3) was 7.2 pg/L and the “TNF-α in HACaT cell supernatants after 24 h, individual values #1-#3” value ([3]; 24 h, single cultures) was 7.6 pg/L and 21.63 pg/L and 6.7 pg/L. The “TNF-α in HACaT cell supernatants after 48 h, mean” value ([3]; 48 h, mean n = 3) was 30.0 pg/L, the “VGEF in HACaT cell supernatants after 24 h, mean” value ([4]; UVB 100 mJ irradiated, 24 h, azelaic acid 20 mM, pigment 3%, mean n = 3) was 692.4 pg/L and the “VGEF in HACaT cell supernatants after 24 h, individual values #1-#3” value ([4]; UVB 100 mJ irradiated, 24 h, azelaic acid 20 mM, pigment 3%, single cultures) was 633.4 pg/L and 1694.59 pg/L and 751.4 pg/L. The “VGEF in HACaT cell supernatants after 48 h, mean” value ([4]; UVB 100 mJ irradiated, 48 h, azelaic acid 20 mM, pigment 3%, mean n = 3) was 3999.0 pg/L, the VGEF in HACaT cell supernatants after 48 h, individual values #1-#3 ([4]; UVB 100 mJ irradiated, 48 h, azelaic acid 20 mM, pigment 3%, single cultures) was 2950 pg/mL and 5810 pg/mL and 3240 pg/mL and the “effect on the endothelial growth factor VEGF” value ([4]; keratinocytes, azelaic acid alone) was “leads to a reduction”. The “MCP-1 in HACaT cell supernatants after 24 h, mean” value ([5]; 24 h, mean n = 3) was 683.2 pg/L, the “MCP-1 in HACaT cell supernatants after 24 h, individual values #1-#3” value ([5]; 24 h, single cultures) was 520.8 pg/L and 908.9 pg/L and 619.9 pg/L and the “MCP-1 in HACaT cell supernatants after 48 h, mean” value ([5]; 48 h, mean n = 3) was 1190.1 pg/L. For the same compound, the “MCP-1 in HACaT cell supernatants after 48 h, individual values #1-#3” value ([5]; 48 h, single cultures) was 1116.1 pg/L and 1279.9 pg/L and 1174.3 pg/L and the “induction of the inflammatory cytokines (IL-1β, IL-6, TNF-α) after irradiation of keratinocytes” value [6] was “can be reduced”.
